Experiment [1] addresses DNA-PK/Ku70/Ku85 (Homo sapiens) (UniProt P78527+P12956+P13010). Briefly: Inhibition of DNAPK ATP labeling site harbouring GHDEREHPFLVKGGEDLR in human Huh-7 cell lysate at 1 uM by KiNativ Profiling analysis relative to control. The class given is subcellular.
The target of experiment [2] is Tyrosine-protein kinase ABL2 (Homo sapiens, UniProt P42684). Briefly: Inhibition of ARG ACT labeling site in human Huh-7 cells at 1 uM by KiNativ Profiling analysis relative to control. The class given is cell-based.
The target in experiment [3] is Serine/threonine-protein kinase WNK1 (Homo sapiens) (UniProt Q9H4A3). Briefly: Inhibition of Wnk1 ACT labeling site in human Huh-7 cells at 1 uM by KiNativ Profiling analysis relative to control. It counts as cell-based.
The target of experiment [4] is Phosphatidylinositol 3-kinase catalytic subunit type 3 (Homo sapiens) (UniProt Q8NEB9). Kind of experiment: Inhibition of PIK3C3 ATP labeling site in human Huh-7 cell lysate at 1 uM by KiNativ Profiling analysis relative to control. It counts as subcellular.
Phosphatidylinositol 3-kinase catalytic subunit type 3 (Homo sapiens), sequence (Q8NEB9 whole entry): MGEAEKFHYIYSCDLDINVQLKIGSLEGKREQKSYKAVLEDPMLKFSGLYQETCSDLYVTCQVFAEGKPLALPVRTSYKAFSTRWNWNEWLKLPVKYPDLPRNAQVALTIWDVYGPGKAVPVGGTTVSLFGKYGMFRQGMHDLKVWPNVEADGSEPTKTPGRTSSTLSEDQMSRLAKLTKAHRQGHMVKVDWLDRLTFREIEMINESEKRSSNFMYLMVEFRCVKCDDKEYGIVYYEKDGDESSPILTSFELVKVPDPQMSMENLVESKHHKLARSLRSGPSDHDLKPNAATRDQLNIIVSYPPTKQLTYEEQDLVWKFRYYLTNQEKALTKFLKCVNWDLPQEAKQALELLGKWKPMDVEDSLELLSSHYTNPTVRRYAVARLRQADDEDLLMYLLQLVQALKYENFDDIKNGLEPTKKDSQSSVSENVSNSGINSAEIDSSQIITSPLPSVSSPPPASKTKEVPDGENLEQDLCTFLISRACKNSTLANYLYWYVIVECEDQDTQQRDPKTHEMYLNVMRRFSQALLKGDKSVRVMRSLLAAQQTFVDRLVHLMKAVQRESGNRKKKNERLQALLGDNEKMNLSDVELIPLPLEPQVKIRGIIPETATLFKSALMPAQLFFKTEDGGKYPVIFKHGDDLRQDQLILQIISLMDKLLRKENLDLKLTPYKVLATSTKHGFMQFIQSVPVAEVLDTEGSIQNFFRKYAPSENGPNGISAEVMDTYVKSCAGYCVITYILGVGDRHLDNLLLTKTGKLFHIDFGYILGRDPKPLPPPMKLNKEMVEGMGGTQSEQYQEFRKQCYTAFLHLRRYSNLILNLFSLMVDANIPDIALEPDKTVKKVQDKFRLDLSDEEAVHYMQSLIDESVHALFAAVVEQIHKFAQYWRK
For experiment [5], the target named is Mitogen-activated protein kinase kinase kinase 11 (Homo sapiens) (UniProt Q16584). Briefly: Inhibition of MLK3 Lys2 labeling site in human Huh-7 cell lysate at 1 uM by KiNativ Profiling analysis relative to control. It counts as subcellular.
Experiment [6] concerns the target Microtubule-associated serine/threonine-protein kinase 1 (Homo sapiens) (UniProt Q9Y2H9). Kind of experiment: Inhibition of MAST1 Lys2 labeling site in human Huh-7 cells at 1 uM by KiNativ Profiling analysis relative to control.
For experiment [7], the target named is Microtubule-associated serine/threonine-protein kinase 4 (Homo sapiens) (UniProt O15021). Kind of experiment: Inhibition of MAST4 Lys2 labeling site in human Huh-7 cells at 1 uM by KiNativ Profiling analysis relative to control. It counts as cell-based.
Experiment [8] is described as follows: Inhibition of KHS1 Lys1 labeling site in human Huh-7 cells at 1 uM by KiNativ Profiling analysis relative to control. Conditions: condition cancer.
For experiment [9], the target named is Phosphatidylinositol 4-phosphate 5-kinase type-1 alpha (Homo sapiens) (UniProt Q99755). Briefly: Inhibition of PIP5K1A (unknown origin) at 1 uM by Ambit Kinomescan binding assay relative to control; values are per cent of control.
Phosphatidylinositol 4-phosphate 5-kinase type-1 alpha (Homo sapiens), sequence (Q99755 whole entry): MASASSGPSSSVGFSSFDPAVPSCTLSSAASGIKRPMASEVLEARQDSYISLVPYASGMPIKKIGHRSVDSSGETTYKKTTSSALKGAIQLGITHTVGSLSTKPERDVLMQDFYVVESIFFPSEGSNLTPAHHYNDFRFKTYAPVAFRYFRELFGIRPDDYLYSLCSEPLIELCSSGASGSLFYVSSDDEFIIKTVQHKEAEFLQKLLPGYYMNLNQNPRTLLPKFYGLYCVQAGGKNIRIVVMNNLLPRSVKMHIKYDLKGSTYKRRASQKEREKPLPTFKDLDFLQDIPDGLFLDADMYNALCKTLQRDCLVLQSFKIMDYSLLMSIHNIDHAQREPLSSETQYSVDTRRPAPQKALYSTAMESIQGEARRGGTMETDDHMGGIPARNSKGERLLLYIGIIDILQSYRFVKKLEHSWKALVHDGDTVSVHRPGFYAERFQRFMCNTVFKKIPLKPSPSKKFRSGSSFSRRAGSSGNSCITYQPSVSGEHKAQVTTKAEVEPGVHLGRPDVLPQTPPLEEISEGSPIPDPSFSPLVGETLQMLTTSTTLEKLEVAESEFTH
In experiment [10] the target is Serine/threonine-protein kinase RIO2 (Homo sapiens) (UniProt Q9BVS4). Briefly: Inhibition of RIOK2 (unknown origin) at 1 uM by Ambit Kinomescan binding assay relative to control.
Experiment [11] deals with Tyrosine-protein kinase TXK (Homo sapiens) (UniProt P42681). Briefly: Inhibition of TXK (unknown origin) at 1 uM by Ambit Kinomescan binding assay relative to control.
Experiment [12] has as its system Mast/stem cell growth factor receptor Kit (Homo sapiens), P10721 [V559D,V654A]. Kind of experiment: Inhibition of KIT V559D/V654A mutant (unknown origin) at 1 uM by Ambit Kinomescan binding assay relative to control; values are per cent of control.
Experiment [13] concerns the target T1, Receptor-interacting serine/threonine-protein kinase 4 (Homo sapiens) (UniProt P57078).
T1 sequence (whole entry): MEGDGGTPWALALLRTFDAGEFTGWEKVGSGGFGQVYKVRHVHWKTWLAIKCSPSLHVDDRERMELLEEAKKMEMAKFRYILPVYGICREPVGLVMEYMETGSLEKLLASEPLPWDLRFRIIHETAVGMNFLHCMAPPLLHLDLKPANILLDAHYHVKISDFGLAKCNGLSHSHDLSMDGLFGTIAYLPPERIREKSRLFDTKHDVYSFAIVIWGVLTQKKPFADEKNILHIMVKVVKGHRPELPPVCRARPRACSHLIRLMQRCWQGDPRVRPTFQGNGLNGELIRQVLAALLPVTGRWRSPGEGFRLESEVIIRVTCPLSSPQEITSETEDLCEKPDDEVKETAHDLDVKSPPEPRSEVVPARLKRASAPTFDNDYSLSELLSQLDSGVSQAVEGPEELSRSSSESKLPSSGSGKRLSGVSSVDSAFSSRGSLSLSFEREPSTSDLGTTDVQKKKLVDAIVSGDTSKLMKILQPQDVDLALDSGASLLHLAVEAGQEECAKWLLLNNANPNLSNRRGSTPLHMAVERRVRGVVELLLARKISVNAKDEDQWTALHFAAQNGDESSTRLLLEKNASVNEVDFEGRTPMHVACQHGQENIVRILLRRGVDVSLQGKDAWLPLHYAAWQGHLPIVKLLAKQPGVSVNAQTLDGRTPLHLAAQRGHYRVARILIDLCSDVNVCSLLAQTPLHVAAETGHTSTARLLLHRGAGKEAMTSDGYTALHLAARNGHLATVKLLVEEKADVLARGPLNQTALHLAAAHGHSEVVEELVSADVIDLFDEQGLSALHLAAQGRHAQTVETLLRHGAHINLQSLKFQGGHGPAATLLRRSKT
Briefly: Inhibition of RIPK4 (unknown origin) at 10 uM by Ambit Kinomescan binding assay.

For experiment [14], the target named is Cyclin-G-associated kinase (Homo sapiens) (UniProt O14976). Kind of experiment: Inhibition of GAK (unknown origin) at 10 uM by Ambit Kinomescan binding assay relative to control.
Cyclin-G-associated kinase (Homo sapiens), sequence (O14976 whole entry): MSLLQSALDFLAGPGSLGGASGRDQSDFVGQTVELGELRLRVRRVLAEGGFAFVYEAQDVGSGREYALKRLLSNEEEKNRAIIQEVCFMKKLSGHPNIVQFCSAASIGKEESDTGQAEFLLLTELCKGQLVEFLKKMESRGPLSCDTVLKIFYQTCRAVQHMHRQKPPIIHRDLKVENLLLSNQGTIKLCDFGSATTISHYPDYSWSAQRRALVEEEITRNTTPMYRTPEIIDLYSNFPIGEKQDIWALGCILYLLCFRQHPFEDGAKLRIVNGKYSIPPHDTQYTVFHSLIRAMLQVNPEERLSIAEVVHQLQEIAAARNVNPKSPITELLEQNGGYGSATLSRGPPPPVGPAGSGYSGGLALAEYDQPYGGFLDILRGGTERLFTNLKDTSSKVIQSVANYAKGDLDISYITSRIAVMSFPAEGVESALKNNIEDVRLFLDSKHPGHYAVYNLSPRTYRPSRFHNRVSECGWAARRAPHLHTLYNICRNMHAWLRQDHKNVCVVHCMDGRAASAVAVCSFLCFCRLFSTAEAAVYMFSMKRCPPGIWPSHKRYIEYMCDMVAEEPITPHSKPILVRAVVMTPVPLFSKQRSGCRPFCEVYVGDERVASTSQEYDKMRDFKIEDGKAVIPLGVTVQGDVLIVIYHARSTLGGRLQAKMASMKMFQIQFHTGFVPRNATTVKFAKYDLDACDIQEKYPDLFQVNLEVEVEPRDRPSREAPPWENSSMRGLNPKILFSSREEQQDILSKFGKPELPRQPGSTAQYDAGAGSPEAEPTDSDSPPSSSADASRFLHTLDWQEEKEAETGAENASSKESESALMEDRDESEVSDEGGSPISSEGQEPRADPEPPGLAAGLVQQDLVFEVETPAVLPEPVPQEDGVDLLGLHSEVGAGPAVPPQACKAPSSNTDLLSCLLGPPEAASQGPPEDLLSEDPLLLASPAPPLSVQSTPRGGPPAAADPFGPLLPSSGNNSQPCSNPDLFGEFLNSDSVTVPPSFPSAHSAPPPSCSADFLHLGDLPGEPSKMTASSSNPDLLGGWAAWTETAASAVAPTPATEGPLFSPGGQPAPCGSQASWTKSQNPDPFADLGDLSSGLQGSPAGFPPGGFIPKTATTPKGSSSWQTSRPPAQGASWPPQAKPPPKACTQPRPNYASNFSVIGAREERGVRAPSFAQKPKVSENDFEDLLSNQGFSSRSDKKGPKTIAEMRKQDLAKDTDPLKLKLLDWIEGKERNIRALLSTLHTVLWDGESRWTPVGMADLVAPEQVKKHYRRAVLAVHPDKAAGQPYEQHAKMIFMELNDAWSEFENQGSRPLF
Experiment [15] has as its target Serine/threonine-protein kinase Nek4 (Homo sapiens) (UniProt P51957). Kind of experiment: Inhibition of NEK4 Lys2 labeling site in human A-375 cells at 0.05 uM by KiNativ Profiling analysis relative to control. The class given is cell-based.
The nature of experiment [16]: Inhibition of Wnk1/2/4 ACT labeling site in human Huh-7 cells at 1 uM by KiNativ Profiling analysis relative to control. Conditions: condition cancer.
For experiment [17], the system named is Receptor-type tyrosine-protein kinase FLT3 (Homo sapiens), P36888 [D835H]. Briefly: Inhibition of FLT3 D835H mutant (unknown origin) at 10 uM by Ambit Kinomescan binding assay relative to control.
Experiment [18] deals with Glycogen synthase kinase-3 beta (Homo sapiens) (UniProt P49841). Kind of experiment: Inhibition of GSK3B (unknown origin) at 10 uM by Ambit Kinomescan binding assay.
In experiment [19] the target is Cyclin-dependent kinase 11B (Homo sapiens) (UniProt P21127). Kind of experiment: Inhibition of CDC2L1 (unknown origin) at 10 uM by Ambit Kinomescan binding assay relative to control; values are per cent of control.
Another experiment concerns RAW. Kind of experiment: Inhibition of LPS induced p38 phosphorylation in mouse RAW cells preincubated for 1 hr followed by LPS stimulation and measured after 30 mins by Western blot analysis. The class given is functional, cell-based. Conditions: dose 0.01-10 µM.
Experiment [20] concerns Epidermal growth factor receptor (Homo sapiens), P00533 [G719S]. Briefly: Inhibition of EGFR G719S mutant (unknown origin) at 10 uM by Ambit Kinomescan binding assay relative to control.
In experiment [21] the target is Ephrin type-A receptor 3 (Homo sapiens) (UniProt P29320). Kind of experiment: Inhibition of EPHA3 (unknown origin) at 10 uM by Ambit Kinomescan binding assay relative to control.
Ephrin type-A receptor 3 (Homo sapiens), sequence (P29320 whole entry): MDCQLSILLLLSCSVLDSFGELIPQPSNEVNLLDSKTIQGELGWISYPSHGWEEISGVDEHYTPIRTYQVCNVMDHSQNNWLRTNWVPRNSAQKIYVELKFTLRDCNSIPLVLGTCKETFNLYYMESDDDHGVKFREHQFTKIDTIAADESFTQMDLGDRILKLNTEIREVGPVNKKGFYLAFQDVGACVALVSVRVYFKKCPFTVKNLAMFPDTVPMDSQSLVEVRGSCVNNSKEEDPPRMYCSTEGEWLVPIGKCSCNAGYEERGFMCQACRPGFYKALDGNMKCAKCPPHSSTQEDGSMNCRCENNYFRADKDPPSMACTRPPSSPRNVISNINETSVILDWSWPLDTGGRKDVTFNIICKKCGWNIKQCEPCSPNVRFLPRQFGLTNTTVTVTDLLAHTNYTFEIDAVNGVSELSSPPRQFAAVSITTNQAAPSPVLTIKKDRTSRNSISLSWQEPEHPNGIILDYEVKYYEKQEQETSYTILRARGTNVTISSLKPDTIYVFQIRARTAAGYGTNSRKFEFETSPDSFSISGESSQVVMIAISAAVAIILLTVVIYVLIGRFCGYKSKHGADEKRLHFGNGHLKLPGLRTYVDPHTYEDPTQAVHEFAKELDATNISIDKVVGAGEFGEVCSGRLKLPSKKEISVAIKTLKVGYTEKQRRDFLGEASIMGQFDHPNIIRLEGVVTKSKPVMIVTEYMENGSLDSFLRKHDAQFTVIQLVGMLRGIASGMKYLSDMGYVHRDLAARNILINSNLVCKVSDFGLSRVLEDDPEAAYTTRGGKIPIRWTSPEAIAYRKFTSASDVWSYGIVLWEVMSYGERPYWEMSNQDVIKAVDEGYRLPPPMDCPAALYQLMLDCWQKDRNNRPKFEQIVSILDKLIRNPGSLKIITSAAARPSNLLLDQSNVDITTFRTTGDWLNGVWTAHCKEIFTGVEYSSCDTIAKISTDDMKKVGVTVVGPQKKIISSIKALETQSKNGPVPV
For experiment [22], the target named is Mitogen-activated protein kinase kinase kinase 20 (Homo sapiens, UniProt Q9NYL2). Briefly: Inhibition of ZAK Lys1 labeling site in human A-375 cells at 5 uM by KiNativ Profiling analysis relative to control. The class given is cell-based.

Active and inactive are the calls of the source. The calls are words filed in the database; no cut-off is given here.

Mast/stem cell growth factor receptor Kit (Homo sapiens), P10721 [V559D,V654A], sequence (P10721 whole entry V559D/V654A): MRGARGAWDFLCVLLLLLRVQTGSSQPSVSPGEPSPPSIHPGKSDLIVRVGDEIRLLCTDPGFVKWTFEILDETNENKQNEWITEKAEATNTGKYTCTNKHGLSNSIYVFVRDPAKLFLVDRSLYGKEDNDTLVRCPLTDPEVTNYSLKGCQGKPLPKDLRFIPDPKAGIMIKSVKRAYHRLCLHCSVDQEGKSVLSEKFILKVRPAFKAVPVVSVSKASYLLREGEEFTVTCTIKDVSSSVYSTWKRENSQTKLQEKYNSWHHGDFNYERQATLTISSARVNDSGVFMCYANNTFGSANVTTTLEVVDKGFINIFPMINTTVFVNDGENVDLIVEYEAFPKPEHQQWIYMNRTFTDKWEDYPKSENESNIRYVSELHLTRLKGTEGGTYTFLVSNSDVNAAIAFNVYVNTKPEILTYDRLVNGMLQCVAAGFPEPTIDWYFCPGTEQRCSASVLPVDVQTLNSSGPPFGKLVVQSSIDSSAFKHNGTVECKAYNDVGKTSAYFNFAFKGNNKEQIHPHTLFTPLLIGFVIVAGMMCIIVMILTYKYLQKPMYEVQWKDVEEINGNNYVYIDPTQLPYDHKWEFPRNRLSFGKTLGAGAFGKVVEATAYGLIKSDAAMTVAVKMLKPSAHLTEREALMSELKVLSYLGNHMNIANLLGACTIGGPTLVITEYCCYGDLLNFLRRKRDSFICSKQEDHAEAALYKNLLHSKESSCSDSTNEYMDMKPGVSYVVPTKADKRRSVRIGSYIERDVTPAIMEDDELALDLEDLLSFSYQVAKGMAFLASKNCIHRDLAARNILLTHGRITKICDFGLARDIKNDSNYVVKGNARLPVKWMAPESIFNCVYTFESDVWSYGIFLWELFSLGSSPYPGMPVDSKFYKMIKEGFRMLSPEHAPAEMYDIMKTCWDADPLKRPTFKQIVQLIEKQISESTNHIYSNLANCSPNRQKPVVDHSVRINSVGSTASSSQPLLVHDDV

Turning to `CNc1cc(Oc2cc(C(=O)Nc3cc(N4CCN(C)CC4)cc(C(F)(F)F)c3)ccc2C)ncn1`, the inhibition was 7.9% in experiment [1]; 31.6% in [2]; 21.6% in [3]; -4.2% in experiment [4]; 3.4% in [5]; 53.8% in experiment [6]. Moreover, the inhibition in experiment [7] came out at 30.2%. Besides, the inhibition at 1 µM in experiment [8] is -10.3%.

Regarding `CCN1CCN(Cc2ccc(NC(=O)c3ccc(C)c(/C=C/c4cnc5[nH]ccc5c4OC)c3)cc2C(F)(F)F)CC1`, the results for the residual activity in [9] and in [12] were 21% and 7.1%, respectively. The figures for the inhibition in experiment [10] and in [11] were 61% and 1.4%, respectively.

Take `CCN1CCN(Cc2ccc(NC(=O)c3ccc(C)c(Oc4ccnc5[nH]ccc45)c3)cc2C(F)(F)F)CC1`: the inhibition result in experiment [13] and in experiment [18] was “inactive” in each case. In addition, the inhibition in experiment [14] is 31%; in experiment [15] it was 15.2%; in [17], 1.2%; with RAW it was “Dose-Dependent Effect”; in experiment [20], 14%; in experiment [21] it was 3.4%. In addition, the inhibition in [22] stood at 98.1%. Moreover, the inhibition at 1 µM in experiment [16] is 7.6%. For the same molecule, the percent of control in experiment [19] worked out at 0.35%.

The values above are taken from ChEMBL document CHEMBL5696442, “Discovery of type II inhibitors of TGFβ-activated kinase 1 (TAK1) and mitogen-activated protein kinase kinase kinase kinase 2 (MAP4K2)” (J Med Chem, 2015).
